# Key:
# [1] = test system: MIN6 mouse beta insulinoma cell line; test: MTT cell viability assay with thapsigargin (TG) challenge; assay type: cell-based; conditions: then TG
# Experimental: MIN6 mouse beta insulinoma cell line was analyzed by MTT cell viability assay respectively. The MIN6 mouse insulinoma beta cell line is an insulinoma cell line which comes from sarcoma virus 40 transfecting non-obese diabetic mice (NOD mice) by T cells, and is a mouse insulinoma cell line having physiological characteristics of insulinoma beta cell.
# MIN6 cell line was cultured in a high glucose DMEM with 15% fetal bovine serum, 50 μmol/L mercaptoethanol, 100 U/ml penicillin, and […] streptomycin. The medium was replaced the next day.
# MIN6 cells were prepared for 1×10^5/ml cell liquid suspensions, and then the suspensions were incubated in a 96-well plate with 100 μl in each well. After cell attachment, the medium was replaced with a 0.2% serum medium and then the cells were cultured for 24 hours in order to keep the cells at rest. Then, 200 mg/L BSA medium and the extracts/compounds from Antrodia camphorata with a variety of predetermined concentrations (experimental groups) were added to react for 24 hours, respectively, and then thapsigargin was added to react for 24 hours. A control group was prepared by adding 100 μl medium and then incubating in a constant temperature incubator at 37° C., 5% CO2 for a period of time. 4 hours before the end of the incubating process, 20 μl MTT (0.5 mg/ml) was added into each well, the samples continued being incubated for 4 hours, and then crystalline dissolved fully with vibration. The absorbance (A) at wavelength of 570 nm was determined respectively by a reader. Then the cell viability was calculated by the following formula: the cell viability=(the average of A570 in the experimental group/the average of A570 in the control group)×100%.
# Referring to FIG. 1A, the extraction from ANCA-D in different concentrations (6.25, 12.5, 25, 50, 100 ng/ml) was added into cells in each group respectively to react for 24 hours. Then, thapsigargin (TG) was added to react for 24 hours and the cell viability of each group was determined after the reaction. Thapsigargin is an endoplasmic reticulum calcium pump inhibitor which can promote depletion of calcium ions from the endoplasmic reticulum and then open store-operated channels to lead the calcium ions to increase in cells. Then, insulin secretion could be inhibited.
# [2] = test system: MIN6 cell; test: Glucose-stimulated insulin secretion (GSIS) assay, insulin by ELISA; assay type: cell-based, mouse
# Experimental: In order to examine the influences of the aforementioned extracts and compounds from Antrodia camphorata for insulin secretion, GSIS assay was performed with MIN6 cell. First, MIN6 cell was incubated in 1×10^5/ml concentration in a 24-well plate and a 15% FBS DMEM medium at 37° C., 5% CO2. After cell attachment, 200 mg/1 BSA medium and the extracts and compounds from Antrodia camphorata in different concentrations were added into each well to react for 24 hours. 5.5 mM/16.7 mM glucose was further added as stimulation and then insulin was determined by ELISA. In the same time, total cellular protein in each well was extracted for a calibration by determining protein concentration with BCA assay.
smiles,measurement,setting,value
"COC1=C(OC)[C@H](O)[C@H](C/C=C(\C)CC/C=C(\C)CC(O)C=C(C)C)[C@@H](C)C1=O (stereo partly shown) [Antrocamol LT1, 4-hydroxy-5-[9-hydroxy-3,7,11-trimethyldodeca-2,6,10-trienyl]-2,3-dimethoxy-6-methyl-cyclohex-2-enone]",MIN6 cell viability,"[1]; concentrations of 250, 500, and 1000 ng/ml, compared with only-TG control, FIG. 2A",increasing tendency was more significant
same,MIN6 cell viability,"[1]; pretreated with compound, compared with only-TG control, overall, FIG. 2A",could increase the MIN6 cell viability
same,insulin secretion relative to control group,"[2]; pretreated with 500 ng/ml, higher glucose concentration 16.7 mM, FIG. 3C",about 2 times
same,insulin secretion,"[2]; pretreated with 500 ng/ml, lower glucose concentration 5.5 mM, FIG. 3C",slightly increased
same,insulin secretion,"[2]; pretreated with 1000 ng/ml and 500 ng/ml, 5.5 mM/16.7 mM glucose, FIG. 3B",slightly increasing tendency
same,insulin secretion,"[2]; pretreated with 1000 ng/ml, higher glucose concentration 16.7 mM, FIG. 3C",more obvious
same,insulin secretion,"[2]; pretreated with 1000 ng/ml, lower glucose concentration 5.5 mM, FIG. 3C",increasing tendency
"COC1=C(OC)[C@H](OC(C)=O)[C@H](C/C=C(\C)CC/C=C(\C)CC(O)C=C(C)C)[C@@H](C)C1=O (stereo partly shown) [Antrocamol LT2, 4-acetoxy-5-[9-hydroxy-3,7,11-trimethyldodeca-2,6,10-trienyl]-2,3-dimethoxy-6-methyl-cyclohex-2-enone]",MIN6 cell viability,"[1]; concentration higher than 50 ng/ml, FIG. 2B",began to slightly decrease
same,MIN6 cell viability,"[1]; lower concentrations, especially 6.25~25 ng/ml, compared with only-TG control, FIG. 2B",significantly increase the MIN6 cell viability
same,effect of promoting insulin secretion,"[2]; pretreated with 50 ng/ml, FIG. 3B",not observed
same,insulin secretion relative to control group,"[2]; pretreated with 100 ng/ml, 5.5 mM/16.7 mM glucose, FIG. 3B",about 2 times
"COC1=C(OC)[C@H](O)[C@H](C/C=C(\C)CC/C=C(\C)C/C=C/C(C)(C)O)[C@@H](C)C1=O [Antrocamol LT3, (4R,5R,6R)-4-hydroxy-5-[(2E,6E,9E)-11-hydroxy-3,7,11-trimethyldodeca-2,6,9-trienyl]-2,3-dimethoxy-6-methylcyclohex-2-enone]",MIN6 cell viability,"[1]; concentration of 1000 ng/ml, FIG. 2C",began increasing
same,MIN6 cell viability,"[1]; concentrations lower than 500 ng/ml, compared with only-TG group, FIG. 2C",did not significantly influence the MIN6 cell viability
same,effect for promoting insulin secretion,"[2]; high glucose, FIG. 3B",observed in high glucose
same,effect for promoting insulin secretion,"[2]; low glucose, FIG. 3B",not low glucose
same,insulin secretion,"[2]; pretreated with 250 ng/ml, 5.5 mM/16.7 mM glucose, FIG. 3B",slightly tendency for promoting insulin secretion

# — patent publication US20160038549A1, “METHOD FOR PROMOTING INSULIN SECRETION BY USING COMPOUNDS AND EXTRACTS ISOLATED FROM ANTRODIA CAMPHORATA” (priority 2014, published 2016)
